Experimental data taken from patent US11845736B2, “Prodrugs of MDMA, MDA, and derivatives thereof” (EmpathBio, Inc., priority 2021, dated 2023).
Values after ≈ are worked out from the molar mass of the structure shown. Where two headings read alike, the source gives them in different places.

Assays:
[1] = healthy human subjects, cited from earlier work
[2] = Compound chemical stability SGF with pepsin
[3] = Compound mouse plasma stability
[4] = Compound chemical stability SGF without pepsin
[5] = Compound solubility in FaSSIF
[6] = Compound chemical stability PBS (pH 6.5)
[7] = cited from earlier work; for Cmax / Tmax: healthy human subjects

SMILES	% Remaining ([2]; 0 minutes) [%]	% Remaining ([2]; 30 minutes) [%]	% Remaining ([2]; 60 minutes) [%]	% Remaining ([2]; 120 minutes) [%]	% Remaining ([2]; 240 minutes) [%]	% Remaining ([3]; 0 minutes) [%]	% Remaining ([3]; 15 minutes) [%]	% Remaining ([3]; 30 minutes) [%]	% Remaining ([3]; 60 minutes) [%]	% Remaining ([4]; 0 minutes) [%]	% Remaining ([4]; 30 minutes) [%]	% Remaining ([4]; 60 minutes) [%]	% Remaining ([4]; 120 minutes) [%]	% Remaining ([4]; 240 minutes) [%]	solubility [5] [µM]	% Remaining ([6]; PBS pH 6.5, 0 minutes) [%]	% Remaining ([6]; PBS pH 6.5, 30 minutes) [%]	% Remaining ([6]; PBS pH 6.5, 60 minutes) [%]	% Remaining ([6]; PBS pH 6.5, 120 minutes) [%]	% Remaining ([6]; PBS pH 6.5, 240 minutes) [%]	other results
CNC(C)Cc1ccc2c(c1)OCO2 (racemic) [MDMA, 3,4-methylenedioxymethamphetamine]																					Cmax ([1]; 75 mg MDMA): 130.9 ng/mL; T1/2 (elimination half-life) ([1]; 75 mg MDMA): 7.7 h; Tmax ([1]; 75 mg MDMA): 1.8 h; Cmax ([1]; 125 mg MDMA): 236.4 ng/mL; T1/2 (elimination half-life) ([1]; 125 mg MDMA): 8.6 h; Tmax ([1]; 125 mg MDMA): 2.4 h
CCOC(=O)N(C)C(C)Cc1ccc2c(c1)OCO2 (stereo not shown) [Compound 1, ethyl(1-(benzo[d][1,3]dioxol-5-yl)propan-2-yl)(methyl)carbamate]	100.00	101.86	98.61	103.31	100.50	100.00	108.51	87.67	98.49	100.00	103.81	101.90	103.81	104.29	309 (≈ 82 µg/mL)	100.00	90.48	90.36	89.59	90.28	% Remaining ([3]; 120 minutes): 89.31%
CCOC(=O)NC(C)Cc1ccc2c(c1)OCO2 (stereo not shown) [Compound 2, ethyl(1-(benzo[d][1,3]dioxol-5-yl)propan-2-yl)carbamate]	100.00	100.95	97.74	98.18	99.08	100.00	101.77	86.60	89.02	100.00	102.53	101.64	90.45	99.40	313 (≈ 78.8 µg/mL)	100.00	89.05	87.87	91.21	88.66	% Remaining ([3]; 120 minutes): 84.42%
CC(OC(=O)N(C)C(C)Cc1ccc2c(c1)OCO2)OC(=O)C(C)(C)C (stereo not shown) [Compound 3, 1-(((1-(benzo[d][1,3]dioxol-5-yl)propan-2-yl)(methyl)carbamoyl)oxy)ethyl pivalate]	100.00	106.44	108.51	103.98	106.17	100	0.0	0.0	0.0	100.00	97.82	97.35	93.65	94.12	101 (≈ 37 µg/mL)	100.00	103.45	107.91	105.56	96.60	% Remaining ([3]; 120 minutes): 0.0%
CC(Cc1ccc2c(c1)OCO2)N(C)C(=O)CN (stereo not shown) [Compound 4, 2-amino-N-(1-(benzo[d][1,3]dioxol-5-yl)propan-2-yl)-N-methylacetamide]	100.00	108.06	98.50	106.18	103.88	100.00	102.99	83.50	94.51	100.00	94.49	96.72	96.67	96.46	291 (≈ 72.9 µg/mL)	100.00	88.84	92.54	92.04	92.48	% Remaining ([3]; 120 minutes): 87.42%
CC(Cc1ccc2c(c1)OCO2)NC(=O)CN (stereo not shown) [Compound 5, 2-amino-N-(1-(benzo[d][1,3]dioxol-5-yl)propan-2-yl)acetamide]	100.00	99.68	105.84	94.42	91.97	100.00	103.33	87.64	90.78	100.00	101.17	91.48	95.49	100.41	304 (≈ 71.8 µg/mL)	100.00	95.53	97.09	98.67	105.87	% Remaining ([3]; 120 minutes): 83.06%
C[C@H](Cc1ccc2c(c1)OCO2)NC(=O)OC(C)(C)C [Compound 6, tert-butyl(R)-(1-(benzo[d][1,3]dioxol-5-yl)propan-2-yl)carbamate]	100.00	85.17	79.89	56.87	31.48	100	102	106	92	100.00	87.96	77.20	57.49	28.57	175 (≈ 49 µg/mL)	100.00	84.81	93.60	103.65	91.66	% Remaining ([3]; 120 minutes): 95%
C[C@H](Cc1ccc2c(c1)OCO2)N(C)C(=O)OC(C)(C)C [Compound 7, tert-butyl(R)-(1-(benzo[d][1,3]dioxol-5-yl)propan-2-yl)(methyl)carbamate]	100.00	74.97	63.49	56.42	28.25	100	101	92	83	100.00	89.90	73.62	61.79	30.52	257 (≈ 75.3 µg/mL)	100.00	94.54	105.49	105.72	102.75	% Remaining ([3]; 120 minutes): 92%
Cc1oc(=O)oc1CN[C@H](C)Cc1ccc2c(c1)OCO2 [Compound 8, (R)-4-(((1-(benzo[d][1,3]dioxol-5-yl)propan-2-yl)amino)methyl)-5-methyl-1,3-dioxol-2-one]	100	103	98	96	92	100	72	54	25	100	97	94	90	86	283 (≈ 82.4 µg/mL)	100	96	93	75	72	% Remaining ([3]; 120 minutes): 6%
Cc1oc(=O)oc1CN(C)[C@H](C)Cc1ccc2c(c1)OCO2 [Compound 9, (R)-4-(((1-(benzo[d][1,3]dioxol-5-yl)propan-2-yl)(methyl)amino)methyl)-5-methyl-1,3-dioxol-2-one]	100	97	92	87	71	100	70	22	4	1000	94	89	83	72	223 (≈ 68.2 µg/mL)	100	83	75	55	32	
CC(N)Cc1ccc2c(c1)OCO2 (stereo not shown) [MDA]																					Cmax ([7]; 75 mg MDA): 7.8 ng/mL; Tmax ([7]; 75 mg MDMA): 5 h; Cmax ([7]; 125 mg MDA): 13.7 ng/mL; Tmax ([7]; 125 mg MDMA): 7 h; MDA formation rate constant ([7]; estimated for both MDMA doses): about 0.75 h
